The values that follow come from a melting point compilation (Tetko et al.; mined from patent text by program, amines drawn as free bases though some values may be those of a salt).

Consider `CC(C#N)(COc1cc(C#N)ccc1C(F)(F)F)NC(=O)c1ccc(SC(F)(F)F)cc1` (stereo not given), for which the melting point is 126 to 127 °C.

In turn, `OCCSC(=S)Nc1ccc(Cl)cn1` had a melting point of 108 °C.

Consider `CCCC(CCC)(CCC)NC(=O)NC`, for which the melting point was found to be 120 °C.

`COc1ccc(C(=NN)Nc2ccc([N+](=O)[O-])cc2)cc1` had a melting point of 104 °C.

Molecule `CCn1c(=O)c2[nH]c(/C=C/c3ccc(F)cc3)nc2n(CC)c1=O` had a melting point greater than 270 °C.

As for `NC1CCN(CC23CC(c4ccccc42)c2ccccc23)CC1`, the melting point was 116 to 119 °C.

`Cc1ccc(-c2cccc(/C=C/C(=O)Nc3ccc(-c4cccnc4)cc3)c2)cc1`: the melting point was in the range of 213 to 214 °C.

As for `CCOC(=O)c1sc(NC(=O)c2cc(C(F)(F)F)cc(C(F)(F)F)c2)nc1C(F)(F)C(F)(F)F`, the melting point was 154 to 155 °C.

As to `CSc1ccc(-n2cnc3ccc(-c4nnc(CC(F)(F)F)o4)cc32)cc1`, the melting point lay within 190 to 192 °C.

`O=C(c1ccc(C2=CCCc3ccccc32)cc1Cl)N1Cc2cccn2Cc2ccccc21` registered a melting point of 174 to 176 °C.

Turning to `CCOC(=O)C(C)c1ccc2nc(N)sc2c1` (stereo not given), the melting point amounted to 146 °C.

Consider `COc1cc(N)c(C(=O)O)c(OC)c1OC`, for which the melting point is 88 to 91 °C.

The molecule `CN(C)C=C(C=O)c1ccc(Cl)cc1Cl` had a melting point of 112 to 114 °C.

Regarding `CC(=O)OC1CCC2C3CCC4=CC(=O)CCC4(C)C3(Br)C(F)CC12C` (stereo not given), the melting point lay in the range of 172 to 174 °C.

Molecule `CN1CCN(CC/C=C/c2cc3ncc(C#N)c(Nc4ccc(Sc5nccn5C)c(Cl)c4)c3cc2F)CC1` returned a melting point of 188 to 194 °C.

In the case of `CC(=O)NC1CCc2c([nH]c3ccccc23)C1` (stereo not given), the melting point fell in the range of 203 to 206 °C.

For `CC(C)(C)NC(=S)N1CCN(c2cnccn2)CC1`, the melting point lay in the range of 153 to 156 °C.

In the case of `Nc1ccc2c(c1)OCC(=S)N2`, the melting point fell in the range of 205 to 211 °C.

Consider `CSC(C(=O)c1cc(-c2ccccc2)on1)N1CCOCC1` (stereo not given), for which the melting point lay within 124 to 126 °C.

In turn, `C=C(c1ccccc1)c1ccc(NC(=S)NC(=O)OC)c(NC(=S)NC(=O)OC)c1` gave a melting point of 182 to 184 °C.

Regarding `O=C1C(=CO)c2ccccc2N1c1ccccc1`, the melting point lay within 192 to 195 °C.

With `CCN1C(=O)C(C)(C)C(=O)N(C)c2cc(CN(CCn3c(=O)ccc4ccccc43)Cc3cnccc3C)ccc21`, the melting point was 120 to 121 °C.

In turn, `O=C(NC1CCN(Cc2ccccc2)CC1)c1ccccc1OCc1ccnc2ccccc12` gave a melting point of 144 to 146 °C.

Turning to `CCN(C)C(=O)Nc1ccc2c(c1Cl)C(c1ccccc1F)=NCC(=O)N2C`, the melting point lay in the range of 184 to 186 °C.

The molecule `CCOC(=O)C1=C(COCCn2c(C)nnc2-c2ccccc2)NC(C)=C(C(=O)Nc2ccccn2)C1c1ccccc1Cl` (stereo not given) yielded a melting point of 167 to 169 °C.

Consider `CC(CCCCCc1nc(-c2ccc(Cl)cc2)c(-c2ccc(Cl)cc2)o1)c1nnn[nH]1` (racemic), for which the melting point is 144 °C.

In turn, `O=C1c2c(c(=O)n3nc(-c4ccccc4)cc3n2Cc2ccccc2)CN1c1ccccc1` displayed a melting point of 271 to 272 °C.

The molecule `CC(C)(C)OC(=O)NCC(COC(C(F)(F)F)(C(F)(F)F)C(F)(F)F)(COC(C(F)(F)F)(C(F)(F)F)C(F)(F)F)C(=O)O` registered a melting point of 128 to 130 °C.

Consider `CON=Cc1[nH]ccc1S(=O)(=O)NC(C)(C)C`, for which the melting point fell in the range of 99 to 101 °C.

`COc1ccc(C(=O)Oc2ccc(C(=O)O)cc2C(=O)O)cc1C12CC3CC(CC(C3)C1)C2` registered a melting point of 172 to 173 °C.

The molecule `O=C1C=CC(=O)c2ncccc21` showed a melting point of 110 °C.

For the molecule `C[C@]12CCC(=O)N[C@@H]1CCc1cc(Sc3ccccn3)ccc12`, the melting point was 223 to 225 °C.

`CCOCc1nc2cnc3cc(-c4ccccc4)ccc3c2n1CCOc1ccccc1`: the melting point was in the range of 137 to 138 °C.

On to `CCC(=O)Nc1c(C(=O)c2cc(Cl)ccc2[N+](=O)[O-])[nH]c2cc(Cl)ccc12`, for which the melting point was 245 to 246 °C.

In turn, `Brc1csc2cc(OCc3ccccc3)ccc12` showed a melting point of 68 °C.

As for `N#Cc1ccc(-c2ncc(C(F)(F)F)cc2Cl)cc1O`, the melting point was 155 to 157 °C.

Consider `O=C(O)c1conc1-c1ccc(F)cc1`, for which the melting point lay within 170 to 174 °C.

Regarding `CN1CCN(CCc2nc3cc(Br)c4ccccc4c3n2C)CC1`, the melting point was 151 to 157 °C.

`NC(=O)c1ccc(OCCCCl)cc1` had a melting point of 142 to 143 °C.

Consider `CC(C)c1ccc(OCCCCCCCCCCCCC(Cl)(Cl)C(=O)O)cc1`, for which the melting point fell in the range of 47 to 49 °C.

Consider `O=C(O)C1(C(F)F)c2ccccc2Oc2ccccc21`, for which the melting point was in the range of 181 to 182 °C.

Regarding `Cc1oc(-c2ccccc2)nc1COc1ccc(COc2ccc(CC(=O)O)cc2)cc1`, the melting point fell in the range of 166 to 167 °C.

The molecule `COC(=O)C=C(OC)c1ccccc1OCc1csc(-c2ccc(F)cc2)n1` yielded a melting point of 105 to 108 °C.

`COC(=O)c1cncn1C1c2ccccc2C(=O)CC1(C)C` (stereo not given) gave a melting point of 93 to 95 °C.

For the molecule `CCCCCCNc1ccc(OC2CCN(C(=O)OC(C)(C)C)CC2)cc1`, the melting point fell in the range of 46 to 47 °C.

As to `COc1ccccc1/C=C/C(=O)Nc1cccc(NC(=N)c2ccccc2)c1`, the melting point was in the range of 219 to 221 °C.

On to `CC(C)C(NC(=O)[C@@H]1CCCN1C(=O)[C@@H](NC(=O)c1ccc(C(=O)N2CCOCC2)nc1)C(C)C)C(=O)C(F)(F)C(F)(F)F` (stereo not given in full), for which the melting point is 111 to 112 °C.

The molecule `COc1ccc(-c2nc(N)ncc2-c2ccc(=O)n(C(C)C)n2)cc1F` displayed a melting point of 174 °C.

`CN1C(=O)c2cccnc2Nc2cc(C(F)(F)F)ccc21` returned a melting point of 169 to 172 °C.

With `COc1ccc(-c2csc3nc(C)c(CCN4CCC(c5noc6cc(F)ccc56)CC4)c(=O)n23)cc1`, the melting point lay within 114 to 119 °C.

With `Cc1cccc(COc2cccc(OCc3ccc4cc(F)ccc4n3)c2)c1C(=O)O`, the melting point fell in the range of 153 to 154 °C.

As to `COc1cc(O)c(C#N)c2cc(-c3ccc(O)c(F)c3)oc12`, the melting point is 265 to 267 °C.

For the molecule `CCCOc1c(-c2ccccc2)nn(C)c1-c1ccccc1`, the melting point was 56 to 57 °C.

In turn, `Cc1cccc(NC(=O)NCC(=O)N(CC(=O)OCc2ccccc2)c2ccccc2)c1` had a melting point of 140 °C.

`CCc1cccc(C(O)c2nc(OC)cc(OC)n2)c1N` (stereo not given) yielded a melting point of 85 to 86 °C.

Regarding `CCCCn1nc2c(N)nc3ccccc3c2c1CC(C)C`, the melting point is 165 to 166 °C.

As for `OCCCc1ccc(O)cc1`, the melting point lay within 52 to 54 °C.

In the case of `CCCc1c(OCCCOc2ccc(CC(=O)O)cc2F)ccc(C(C)=O)c1O`, the melting point lay in the range of 121 to 123 °C.

Molecule `NC(=NC(=O)Cn1c(Cl)ccc1Cl)NC(=O)c1ccccc1` gave a melting point of 212 to 213 °C.

The molecule `CCCC(=O)OCCOc1ccc2oc3cc(C#N)ccc3c(=O)c2c1` showed a melting point of 145 to 147 °C.

Consider `COc1ccc(CCN(C)C(=O)/C=C/c2cccnc2)cc1OC`, for which the melting point is 84 to 86 °C.

Consider `CSc1nnc(-c2snnc2C)o1`, for which the melting point amounted to 65 °C.

Take `COc1ccc(-c2ccc(OC3SCC(OC(C)=O)C(OC(C)=O)C3OC(C)=O)cn2)cn1` (stereo not given): the melting point was 74 °C.

For `CC(C)OC(=O)N1CC(=O)Nc2ccc(-c3cccc(Cl)c3)cc21`, the melting point was in the range of 174 to 176 °C.

The molecule `CCCCOc1ccc(S(=O)(=O)N2CC(NC[C@H](O)COc3ccc(O)cc3)C2)cc1` showed a melting point of 55 to 58 °C.

Turning to `NCCc1ccc(OCC2CCCO2)c(S(N)(=O)=O)c1` (stereo not given), the melting point lay within 135 to 140 °C.

Turning to `O=C(c1ccc([N+](=O)[O-])cc1Cl)N1CCCCc2ncccc21`, the melting point is 143 to 145 °C.

For `CCCCCCCCCCC(=O)OC1CC(C)(C)N(CC#N)C(C)(C)C1`, the melting point was 54 °C.

With `O=C(NCCO[N+](=O)[O-])c1ccsc1`, the melting point is 100 to 102 °C.

The molecule `C=C(c1ccc(C#N)cc1)c1cncs1` yielded a melting point of 71 to 73 °C.

In turn, `Nc1ccc(NC2CCCCC2)cc1` came in with a melting point of 59 to 61 °C.

As for `CCCc1c(OCCCCCCc2ccccc2CCC(=O)O)ccc2c1OCCC2=O`, the melting point fell in the range of 98 to 99 °C.

The molecule `Cc1cccc(NC(N)=S)c1N1CCOCC1` showed a melting point of 178 to 179 °C.

`CN(C)C(=O)CCC(=O)NC1CCC(CCN2CCN(c3nccc4c3OCC4)CC2)CC1` (stereo not given): the melting point worked out at 178 °C.

For `Cc1nc2c(c(-c3ccccc3)n1)CCN(c1ccnc([C@@H](C)O)n1)C2`, the melting point lay within 114 to 116 °C.

The molecule `CN(C)c1cc(CC(C#N)=CNc2ccccc2)cc(N(C)C)c1Cl` registered a melting point of 168 °C.

The molecule `COCCCSc1c2c(=O)n(C)c(=O)n(CC(C)C)c2cn1Cc1cccc2ccccc12` showed a melting point of 92 to 94 °C.

`O=C1CCCC12CCn1c(cc3ccccc31)C2` (stereo not given) came in with a melting point of 128 to 130 °C.

For the molecule `O=C(Nc1ccc(Br)cc1)N1COC2(c3ccc(F)cc3)Cc3cc(F)ccc3C2=N1` (stereo not given), the melting point lay in the range of 208 to 209 °C.

Molecule `CC(C)Nc1cccnc1N1CCN(C(=O)c2ccc(C(=O)NCCN3CCOCC3)cc2)CC1` showed a melting point of 114 to 116 °C.

`O=C1NC(=O)c2c1c(-c1ccccc1)cc1c2c2cc(O)ccc2n1CCCN1CCNCC1` showed a melting point of 178 to 183 °C.

Take `O=C1N[C@@H](Cc2ccccc2)C(=O)N/C1=C\c1ccccc1`: the melting point was in the range of 275 to 276 °C.

`O=C=Nc1c2c(cc3c1CCC3)CCC2`: the melting point fell in the range of 40 to 41 °C.

`O=C(O)c1cc2c(=O)n(-c3ccccc3)c3ccccc3n2c1`: the melting point is 304 to 306 °C.

`CCc1ccccc1-n1c(=O)[nH]c2c(C(N)=O)nc(-c3cccc(O)c3)nc21` registered a melting point of 355 to 357 °C.

Molecule `CCOc1c(C(=O)O)sc2ccc(OC)cc12` came in with a melting point of 162 to 164 °C.

Consider `CN(C)Cc1ccc(CSCCNc2ncc([N+](=O)[O-])c(=O)[nH]2)o1`, for which the melting point was 201 to 204 °C.

In turn, `Nc1nc(Cl)cc(NC(CO)C2C=CCC2)n1` (stereo not given) showed a melting point of 201 to 203 °C.

In turn, `OC1CSC(Oc2cc(-c3ccccn3)cc(F)c2F)C(O)C1O` (stereo not given) came in with a melting point of 162 °C.

`CC1(C)Cc2c(cc(C(C)(C)C)c(O)c2C(C)(C)C)S1`: the melting point amounted to 79 °C.

For orientation: melting point means the temperature, or range, at which the solid turns liquid.
